US9631001B2, “Peptide antagonists of the vasopressin-2 receptor” (COMMISSARIAT A L'ENERGIE ATOMIQUE ET AUX ENERGIES …, priority 2012, dated 2017)
Bridges are numbered along the chain shown (N, C = ends). Where no end group is shown, it is not given here.

What was measured:
V2R = V2R (Homo sapiens, UniProt P30518); details: vaptans, background; cited from earlier work
[1] = target: vasopressin V2 receptor subtype (V2R) (Homo sapiens, UniProt P30518); assay: 3H-AVP competition binding on V2R membranes; details: for Ki: Ki (nM ± SEM), binding affinity of the ligands for V2R, 3H-AVP competition, mean ± SEM; for V2R inhibition, 3H-AVP binding (FIG. 15): compared with U-Da2a
Method: Reaction mixtures contained 50 mM Tris-HCl, pH 7.4, 10 mM MgCl2 and 1 g/L BSA in a final volume of 100 μL. Plates were incubated for 3 h at room temperature. Binding reactions were stopped by filtration through a GF/C filter pre-soaked in 0.5% polyethyleneimine on a cell harvester ([sequence], Courtaboeuf, France) and plates were dried. […] A one-site inhibition mass action curve was fitted to inhibition binding data using Kaleidagraph (SYNERGY SOFTWARE, Reading, Pa., USA).

For `Cc1nc2c([nH]1)-c1ccccc1N(C(=O)c1ccc(NC(=O)c3ccccc3-c3ccccc3)cc1)CC2` [Conivaptan], the V2/V1a selectivity index (V2R) is listed as 0.15.

For `CCOc1ccc2c(c1)C1(CCC(OCCN3CCOCC3)CC1)C(=O)N2S(=O)(=O)c1ccc(C(=O)NC(C)(C)C)cc1OC` (stereo not shown) [Satavaptan], the V2/V1a selectivity index (V2R) is listed as 112.

In the case of “CNLPVKPGPCNGFFSAFYYSQKTNKCHSFTYGGCKGNANRFSTIEKCRRTCVG (disulfide 1-51, 10-34, 26-47) [U-Da2a-delta4 N-ter]”, the Ki [1] is reported as 1.57 ± 1.2 nM.

With “DTx-E-R55 (LQHRTFCKLPAEPGPCKASIPAFYYNWAAKKCQLFHYGGCKGNANRFSTIEKCRRACVG; listed as Dendroaspis polylepis) [reference compound]” the “V2R inhibition, 3H-AVP binding (FIG. 15)” value [1] was “not able to block V2R”.

With “Dendrotoxin-K [DTx-K, reference compound]” the “V2R inhibition, 3H-AVP binding (FIG. 15)” value [1] was “no V2R inhibition”.

With “RPKFCNLPVKPGPCNGFFSAFYYSQKTNKCHSFTYGGCKGNANRFSTIEKCRRTCVG (disulfide 5-55, 14-38, 30-51) [U-Da2a-S3K]” the Ki [1] was 1.29 ± 0.34 nM.

“SFCNLPVKPGPCNGFFSAFYYSQKTNKCHSFTYGGCKGNANRFSTIEKCRRTC (disulfide 3-53, 12-36, 28-49) [U-Da2a-delta2 N-ter/delta2 C-ter]” showed a Ki [1] of 3.23 ± 2.31 nM.
